“And” between values parts separate entries of the source, which are not always exact repeats. Equal values may be shown once. Toxic doses and inconclusive results are not listed. Rule for the calls: active = survival T/C of 150% or more; inactive = T/C below 125% in these data.
System: CD2F1 mice, L1210 leukemia ip, survival T/C
Assay: NCI In Vivo Anticancer Drug Screen. Data for tumor model L1210 Leukemia (intraperitoneal) in CD2F1 (CDF1) mice
Settings: higher = longer survival
Outline: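 Compound-dosed mice with transplantable tumor versus matched vehicle controls; endpoint ratio T/C reported.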

[1] = endpoint: mean survival time, dose: 100.0 mg/kg/injection, schedule: Q04DX003 (ip), vehicle: saline
[2] = endpoint: mean survival time, dose: 100.0 mg/kg/injection, schedule: Q04DX003 (ip), vehicle: saline with Tween-80
[3] = endpoint: mean survival time, dose: 200.0 mg/kg/injection, schedule: Q04DX003 (ip), vehicle: saline with Tween-80
[4] = endpoint: mean survival time, dose: 50.0 mg/kg/injection, schedule: Q04DX002 (ip), vehicle: saline with Tween-80
[5] = endpoint: mean survival time, dose: 100.0 mg/kg/injection, schedule: Q04DX002 (ip), vehicle: saline with Tween-80
[6] = endpoint: mean survival time, dose: 200.0 mg/kg/injection, schedule: Q04DX002 (ip), vehicle: saline with Tween-80
[7] = endpoint: mean survival time, dose: 12.5 mg/kg/injection, schedule: Q04DX003 (ip), vehicle: saline
[8] = endpoint: mean survival time, dose: 25.0 mg/kg/injection, schedule: Q04DX003 (ip), vehicle: saline

Measured: T/C

CCN(CC)C(=O)N1CC2CCC(C1)N2C
inactive: [1] 100 % of control

CNc1ccc(O)cc1
inactive: endpoint: mean survival time, dose: 5.0 mg/kg/injection, schedule: Q01DX009 (ip), vehicle: saline sonified 101 % of control | endpoint: mean survival time, dose: 5.0 mg/kg/injection, schedule: Q04DX003 (ip), vehicle: saline 91 % of control | endpoint: mean survival time, dose: 10.0 mg/kg/injection, schedule: Q01DX009 (ip), vehicle: saline sonified 103 % of control | endpoint: mean survival time, dose: 10.0 mg/kg/injection, schedule: Q04DX003 (ip), vehicle: saline 97 % of control | endpoint: mean survival time, dose: 20.0 mg/kg/injection, schedule: Q01DX009 (ip), vehicle: saline sonified 104 % of control | endpoint: mean survival time, dose: 20.0 mg/kg/injection, schedule: Q04DX003 (ip), vehicle: saline 101 % of control

CSc1ccc(OC(=O)Nc2ccccc2F)cc1
inactive: [2] 101 % of control | [3] 112 % of control

CS(=O)(=O)Oc1ccccc1OS(C)(=O)=O
inactive: [4] 113 % of control | [5] 113 % of control | [6] 101 % of control

CCOCCNc1ccc(S(=O)(=O)c2ccc(N)cc2)cc1N
inactive: endpoint: mean survival time, dose: 100.0 mg/kg/injection, schedule: Q01DX009 (ip), vehicle: saline 103 % of control | endpoint: mean survival time, dose: 200.0 mg/kg/injection, schedule: Q01DX009 (ip), vehicle: saline 92 % of control | endpoint: mean survival time, dose: 400.0 mg/kg/injection, schedule: Q01DX009 (ip), vehicle: saline 92 % of control

Nc1ncnc2c1c1c(=S)[nH]c(=O)[nH]c1n2C1OC(CO)C(O)C1O (stereo not drawn)
inactive: endpoint: mean survival time, dose: 25.0 mg/kg/injection, schedule: Q01DX005 (ip), vehicle: distilled water + Tween-80 101 % of control | endpoint: mean survival time, dose: 50.0 mg/kg/injection, schedule: Q01DX005 (ip), vehicle: distilled water + Tween-80 106 % of control | endpoint: mean survival time, dose: 100.0 mg/kg/injection, schedule: Q01DX005 (ip), vehicle: distilled water + Tween-80 104 % of control

CCN(C(=O)Nc1ccccc1Cl)c1ccccc1
inactive: endpoint: mean survival time, dose: 75.0 mg/kg/injection, schedule: Q04DX003 (ip), vehicle: saline with Tween-80 102 % of control | endpoint: mean survival time, dose: 150.0 mg/kg/injection, schedule: Q04DX003 (ip), vehicle: saline with Tween-80 101 % of control | endpoint: mean survival time, dose: 300.0 mg/kg/injection, schedule: Q04DX003 (ip), vehicle: saline with Tween-80 98 % of control

CCOC(=O)C1=C(C)NC(C)=C(C(=O)OCC)C1c1ccccc1Cl
inactive: endpoint: mean survival time, dose: 12.5 mg/kg/injection, schedule: Q01DX009 (ip), vehicle: acetone 102 % of control | endpoint: mean survival time, dose: 25.0 mg/kg/injection, schedule: Q01DX009 (ip), vehicle: acetone 100 % of control | endpoint: mean survival time, dose: 50.0 mg/kg/injection, schedule: Q01DX009 (ip), vehicle: acetone 104 % of control

c1ccc2c[n+]3cc4ccccc4cc3cc2c1
inactive: [7] 104 % of control | [8] 97 % of control

CCCCCCCCCCCCNC(=O)c1ccc[n+](Cc2ccc(Cl)c(Cl)c2)c1
inactive: endpoint: mean survival time, dose: 12.5 mg/kg/injection, schedule: Q01DX009 (ip), vehicle: saline with Tween-80 98 % of control | endpoint: mean survival time, dose: 12.5 mg/kg/injection, schedule: Q04DX003 (ip), vehicle: saline sonified 98 % of control | endpoint: mean survival time, dose: 25.0 mg/kg/injection, schedule: Q04DX003 (ip), vehicle: saline sonified 98 % of control | endpoint: mean survival time, dose: 50.0 mg/kg/injection, schedule: Q04DX003 (ip), vehicle: saline sonified 95 % of control

Cc1ccc[n+](CC(O)c2ccc(C(O)C[n+]3cccc(C)c3)cc2)c1 (stereo not drawn)
inactive: endpoint: mean survival time, dose: 0.08 mg/kg/injection, schedule: Q04DX003 (ip), vehicle: saline 101 % of control | endpoint: mean survival time, dose: 0.15 mg/kg/injection, schedule: Q04DX003 (ip), vehicle: saline 101 % of control

O=N[O-].O=N[O-].[Co].[NH-]CC[NH-].[NH-]CC[NH-]
inactive: [4] 93 % of control | endpoint: mean survival time, dose: 75.0 mg/kg/injection, schedule: Q01DX001 (ip), vehicle: saline 103 % of control | [5] 100 % of control | endpoint: mean survival time, dose: 150.0 mg/kg/injection, schedule: Q01DX001 (ip), vehicle: saline 113 % of control | [6] 96 % of control

O=C(OC(CC[P+](c1ccccc1)(c1ccccc1)c1ccccc1)(C(=O)c1ccccc1)c1ccccc1)c1ccccc1 (stereo not drawn)
inactive: endpoint: mean survival time, dose: 0.38 mg/kg/injection, schedule: Q01DX009 (ip), vehicle: saline 104 % of control | endpoint: mean survival time, dose: 0.75 mg/kg/injection, schedule: Q01DX009 (ip), vehicle: saline 105 % of control | endpoint: mean survival time, dose: 1.5 mg/kg/injection, schedule: Q01DX009 (ip), vehicle: saline 93 % of control

CN(C)c1ccc(/C=C2N=C(/C=C\c3ccccc3)OC\2=O)cc1
inactive: [5] 98 % of control | [6] 94 % of control | endpoint: mean survival time, dose: 400.0 mg/kg/injection, schedule: Q04DX002 (ip), vehicle: saline with Tween-80 105 % of control

C[CH2][Sn]([Cl])([CH2]C)[c]1cc[c]([Sn]([Cl])([CH2]C)[CH2]C)cc1
inactive: endpoint: median survival time, dose: 0.06 mg/kg/injection, schedule: Q01DX005 (ip), vehicle: Klucel (hydroxypropylcellulose) (HPC) 103 % of control | endpoint: median survival time, dose: 0.12 mg/kg/injection, schedule: Q01DX005 (ip), vehicle: Klucel (hydroxypropylcellulose) (HPC) 112 % of control | endpoint: median survival time, dose: 3.8 micrograms/kg/injection, schedule: Q01DX005 (ip), vehicle: Klucel (hydroxypropylcellulose) (HPC) 103 % of control | endpoint: median survival time, dose: 7.5 micrograms/kg/injection, schedule: Q01DX005 (ip), vehicle: Klucel (hydroxypropylcellulose) (HPC) 100 % of control | endpoint: median survival time, dose: 15.0 micrograms/kg/injection, schedule: Q01DX005 (ip), vehicle: Klucel (hydroxypropylcellulose) (HPC) 102 % of control | endpoint: median survival time, dose: 30.0 micrograms/kg/injection, schedule: Q01DX005 (ip), vehicle: Klucel (hydroxypropylcellulose) (HPC) 98 % of control | endpoint: median survival time, dose: 60.0 micrograms/kg/injection, schedule: Q01DX005 (ip), vehicle: Klucel (hydroxypropylcellulose) (HPC) 103 % of control | endpoint: median survival time, dose: 120.0 micrograms/kg/injection, schedule: Q01DX005 (ip), vehicle: Klucel (hydroxypropylcellulose) (HPC) 109 % of control

CCOC(=O)c1c(C)oc2cc3c(C(=O)OCC)c(C)oc3cc12
inactive: endpoint: mean survival time, dose: 100.0 mg/kg/injection, schedule: Q01DX001 (ip), vehicle: Klucel (hydroxypropylcellulose) (HPC) 90 % of control | endpoint: mean survival time, dose: 200.0 mg/kg/injection, schedule: Q01DX001 (ip), vehicle: Klucel (hydroxypropylcellulose) (HPC) 95 % of control | endpoint: mean survival time, dose: 400.0 mg/kg/injection, schedule: Q01DX001 (ip), vehicle: Klucel (hydroxypropylcellulose) (HPC) 93 % of control

CC(C)(c1cc(Cl)c(OCCO)c(Cl)c1)c1cc(Cl)c(OCCO)c(Cl)c1
inactive: [2] 105 % of control | [3] 102 % of control | endpoint: mean survival time, dose: 400.0 mg/kg/injection, schedule: Q04DX003 (ip), vehicle: saline with Tween-80 109 % of control

Nc1ccc(C(O)(C(F)(F)F)C(F)(F)F)c(C(=O)O)c1
inactive: endpoint: mean survival time, dose: 100.0 mg/kg/injection, schedule: Q01DX009 (ip), vehicle: other 106 % of control | endpoint: mean survival time, dose: 200.0 mg/kg/injection, schedule: Q01DX009 (ip), vehicle: other 106 % of control | endpoint: mean survival time, dose: 400.0 mg/kg/injection, schedule: Q01DX009 (ip), vehicle: other 102 % of control

O=C(Nc1ccc(NC(=O)c2ccccc2)c(Sc2ccccc2)c1Sc1ccccc1)c1ccccc1
inactive: endpoint: mean survival time, dose: 100.0 mg/kg/injection, schedule: Q01DX001 (ip), vehicle: saline with Tween-80 89 % of control | endpoint: mean survival time, dose: 200.0 mg/kg/injection, schedule: Q01DX001 (ip), vehicle: saline with Tween-80 89 % of control | endpoint: mean survival time, dose: 400.0 mg/kg/injection, schedule: Q01DX001 (ip), vehicle: saline with Tween-80 86 % of control

COC1=CC=C2C3Cc4ccc(OC)c(O)c4C2(C1)CN3C (stereo not drawn)
inactive: endpoint: mean survival time, dose: 25.0 mg/kg/injection, schedule: Q01DX009 (ip), vehicle: Klucel (hydroxypropylcellulose) (HPC) 102 % of control | endpoint: mean survival time, dose: 50.0 mg/kg/injection, schedule: Q01DX009 (ip), vehicle: Klucel (hydroxypropylcellulose) (HPC) 104 % of control | endpoint: mean survival time, dose: 100.0 mg/kg/injection, schedule: Q01DX009 (ip), vehicle: Klucel (hydroxypropylcellulose) (HPC) 103 % of control

C=C1C(=O)OC2/C=C(\C)CC/C=C(/C=O)C(OC(=O)C(C)C)C(O)C12 (stereo not drawn)
inactive: endpoint: mean survival time, dose: 1.0 mg/kg/injection, schedule: Q01DX009 (ip), vehicle: saline with Tween-80 113 % of control and 103 % of control | endpoint: mean survival time, dose: 2.0 mg/kg/injection, schedule: Q01DX009 (ip), vehicle: saline with Tween-80 103 % of control and 105 % of control and 107 % of control | endpoint: mean survival time, dose: 4.0 mg/kg/injection, schedule: Q01DX009 (ip), vehicle: saline with Tween-80 97 % of control and 100 % of control and 107 % of control | endpoint: mean survival time, dose: 8.0 mg/kg/injection, schedule: Q01DX009 (ip), vehicle: saline with Tween-80 102 % of control and 109 % of control and 112 % of control | endpoint: mean survival time, dose: 16.0 mg/kg/injection, schedule: Q01DX009 (ip), vehicle: saline with Tween-80 92 % of control and 96 % of control

CS(C)=O.CS(C)=O.[Cl][Rh]([Cl])([Cl])[Cl]
inactive: endpoint: mean survival time, dose: 12.5 mg/kg/injection, schedule: Q01DX009 (ip), vehicle: saline 111 % of control | [7] 100 % of control | endpoint: mean survival time, dose: 25.0 mg/kg/injection, schedule: Q01DX009 (ip), vehicle: saline 117 % of control | [8] 98 % of control | endpoint: mean survival time, dose: 50.0 mg/kg/injection, schedule: Q01DX009 (ip), vehicle: saline 119 % of control | endpoint: mean survival time, dose: 50.0 mg/kg/injection, schedule: Q04DX003 (ip), vehicle: saline 100 % of control | [1] 117 % of control
